Here are results for five compounds from US20220389061A1, “IMMUNOMODULATORS” (priority 2019, published 2022).

Starred links: 1 amine or outer side, 2 acyl side, 3 side chain; linkers in the order of their positions; H or OH if unused. Positions of bridges follow the written chain, without caps; N, C: chain ends. Non-standard residues stand in square brackets, D forms with d. Residues, ends and D or L forms follow the SMILES beside them. Groups on a side chain read outwards from the residue. *: point of attachment. Trp(1-CH2COOH) = N[C@@H](Cc1cn(CC(=O)O)c2ccccc12)C(=O)O; Hyp = O=C(O)[C@@H]1C[C@@H](O)CN1; X30 = FC(F)(F)c1ccc(N*)c(Cl)c1; NMeNle = CCCC[C@H](NC)C(=O)O; NMeA = CN[C@@H](C)C(=O)O; Dab = NCC[C@H](N)C(=O)O; X39 = CCCCOc1ccc(N*)cc1; Dap = NC[C@H](N)C(=O)O; X15 = Cc1ccc(Cl)cc1N*; CO = O=C([*:1])[*:2]

In the test the target is T1, PD-1/PD-L1 (Homo sapiens, UniProt Q9NZQ7).
T1 construct: TVMV protease site linker (C); made in house; host or cells: HEK293T cells
T1 sequence (Q9NZQ7 18-239): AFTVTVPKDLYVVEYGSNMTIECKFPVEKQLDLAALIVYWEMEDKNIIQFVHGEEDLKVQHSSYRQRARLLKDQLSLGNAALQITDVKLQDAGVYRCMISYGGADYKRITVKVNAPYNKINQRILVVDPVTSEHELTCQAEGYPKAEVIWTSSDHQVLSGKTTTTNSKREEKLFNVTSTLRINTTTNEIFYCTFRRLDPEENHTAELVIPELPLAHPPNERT
Briefly: PD-1/PD-L1 Homogenous Time-Resolved Fluorescence (HTRF) binding assay. To be noted: PD-L1-His 10 nM pre-incubated with inhibitor, PD-1-Ig 20 nM; read-out: HTRF IC50. The method, boiled down: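 HTRF read-out using europium cryptate anti-Ig (1 nM) and APC anti-His (20 nM) on extracellular-domain fusion proteins in dPBS/0.1% BSA/0.05% Tween-20. Inhibitor first incubated 15 min with 10 nM PD-L1-His, followed by 20 nM PD-1-Ig for another 15 min.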
One may read the IC50 as the point on the concentration scale where inhibition reaches its midpoint. Take `CCCC[C@H]1C(=O)N(C)[C@@H](CCCC)C(=O)N[C@@H](CC(C)C)C(=O)N[C@H](C(=O)NCC(N)=O)CSCC(=O)N[C@@H](Cc2ccc(O)cc2)C(=O)N(C)[C@@H](C)C(=O)N[C@@H](CC(N)=O)C(=O)N2CCC[C@H]2C(=O)N[C@@H](CN)C(=O)N[C@@H](CC(C)C)C(=O)N2C[C@H](O)C[C@H]2C(=O)N[C@@H](Cc2c[nH]c3ccccc23)C(=O)N[C@@H](CCNC(=O)Nc2ccc(C(F)(F)F)cc2Cl)C(=O)N[C@@H](Cc2cn(CC(=O)O)c3ccccc23)C(=O)N1C` [Example 1115] ({CH2CO}-Y[NMeA]NP[Dap]L[Hyp]W[Dab]([CO-X30])[Trp(1-CH2COOH)][NMeNle][NMeNle]LCG-NH2; thioether N-14): the IC50 came out at 10 nM.

Take `CCCC[C@H]1C(=O)N(C)[C@@H](CCCC)C(=O)N[C@@H](CC(C)C)C(=O)N[C@H](C(=O)NCC(N)=O)CSCC(=O)N[C@@H](Cc2ccc(O)cc2)C(=O)N(C)[C@@H](C)C(=O)N[C@@H](CC(N)=O)C(=O)N2CCC[C@H]2C(=O)N[C@@H](CNC(=O)Nc2ccc(C(F)(F)F)cc2Cl)C(=O)N[C@@H](CC(C)C)C(=O)N2C[C@H](O)C[C@H]2C(=O)N[C@@H](Cc2c[nH]c3ccccc23)C(=O)N[C@@H](CCNC(=O)Nc2ccc(C(F)(F)F)cc2Cl)C(=O)N[C@@H](Cc2cn(CC(=O)O)c3ccccc23)C(=O)N1C` [Example 1116] ({CH2CO}-Y[NMeA]NP[Dap]([CO-X30])L[Hyp]W[Dab]([CO-X30])[Trp(1-CH2COOH)][NMeNle][NMeNle]LCG-NH2; thioether N-14): the IC50 was 18 nM.

For the compound `CCCC[C@H]1C(=O)N(C)[C@@H](CCCC)C(=O)N[C@@H](CC(C)C)C(=O)N[C@H](C(=O)NCC(N)=O)CSCC(=O)N[C@@H](Cc2ccc(O)cc2)C(=O)N(C)[C@@H](C)C(=O)N[C@@H](CC(N)=O)C(=O)N2CCC[C@H]2C(=O)N[C@@H](CN)C(=O)N[C@@H](CC(C)C)C(=O)N2C[C@H](O)C[C@H]2C(=O)N[C@@H](Cc2c[nH]c3ccccc23)C(=O)N[C@@H](CCNC(=O)Nc2cc(Cl)ccc2C)C(=O)N[C@@H](Cc2cn(CC(=O)O)c3ccccc23)C(=O)N1C` [Example 1117] ({CH2CO}-Y[NMeA]NP[Dap]L[Hyp]W[Dab]([CO-X15])[Trp(1-CH2COOH)][NMeNle][NMeNle]LCG-NH2; thioether N-14), the 50% inhibitory concentration (IC50) is 4.7 nM.

In the case of `CCCC[C@H]1C(=O)N(C)[C@@H](CCCC)C(=O)N[C@@H](CC(C)C)C(=O)N[C@H](C(=O)NCC(N)=O)CSCC(=O)N[C@@H](Cc2ccc(O)cc2)C(=O)N(C)[C@@H](C)C(=O)N[C@@H](CC(N)=O)C(=O)N2CCC[C@H]2C(=O)N[C@@H](CNC(=O)Nc2cc(Cl)ccc2C)C(=O)N[C@@H](CC(C)C)C(=O)N2C[C@H](O)C[C@H]2C(=O)N[C@@H](Cc2c[nH]c3ccccc23)C(=O)N[C@@H](CCNC(=O)Nc2cc(Cl)ccc2C)C(=O)N[C@@H](Cc2cn(CC(=O)O)c3ccccc23)C(=O)N1C` [Example 1118] ({CH2CO}-Y[NMeA]NP[Dap]([CO-X15])L[Hyp]W[Dab]([CO-X15])[Trp(1-CH2COOH)][NMeNle][NMeNle]LCG-NH2; thioether N-14), the IC50 was determined as 4.3 nM.

As for `CCCCOc1ccc(NC(=O)NCC[C@@H]2NC(=O)[C@H](Cc3c[nH]c4ccccc34)NC(=O)[C@@H]3C[C@@H](O)CN3C(=O)[C@H](CC(C)C)NC(=O)[C@H](CN)NC(=O)[C@@H]3CCCN3C(=O)[C@H](CC(N)=O)NC(=O)[C@H](C)N(C)C(=O)[C@H](Cc3ccc(O)cc3)NC(=O)CSC[C@@H](C(=O)NCC(N)=O)NC(=O)[C@H](CC(C)C)NC(=O)[C@H](CCCC)N(C)C(=O)[C@H](CCCC)N(C)C(=O)[C@H](Cc3cn(CC(=O)O)c4ccccc34)NC2=O)cc1` [Example 1119] ({CH2CO}-Y[NMeA]NP[Dap]L[Hyp]W[Dab]([CO-X39])[Trp(1-CH2COOH)][NMeNle][NMeNle]LCG-NH2; thioether N-14), the IC50 was determined as 3.4 nM.
